{"source": "paper PMC9369794", "about": "(Molecules, 2022)", "key": {"[1]": {"assay": "Kinetic solubility in PBS pH 7.4", "type": "physicochemical", "conditions": "aqueous buffer, kinetic from dmso stock, kinetic solubility after 2 h, at 37 °C in PBS, nominal 250 μM, read-out: Kin.Sol.", "experimental": "On a 96-well polypropylene plate (Greiner bio-one) 7.5 μL stock solutions were added to 292.5 μL PBS (pH 7.4) to make a solution with the nominal concentration of 250 μM. For each sample 3 replicates were measured. […] After that, each sample was transferred into a filter plate (MSSBLPC, Multiscreen Filter plate, Merck kGaA) and filtered (Vaccum Manifold, Merck kGaA, Darmstadt, Germany). The filtrates were transferred into UV-Star microplates (Greiner bio-one) and acetonitrile (AcN) was added to each well to avoid precipitation. The final solvent ratio was AcN:PBS 70:30. UV-Vis spectra were collected for each replicate by a Multiskan Sky UV-plate reader (Thermo Scientific, Waltham, MA, USA) in a wavelength range of 250–700 nm, with 1 nm steps. After blank substraction, the kinetic solubility of the samples was determined based on absorption at λmax using a 5-point calibration curve for each sample recorded in 70:30 AcN:PBS solvent.\nLimit of detection (LOD) and limit of quantification (LOQ) were calculated with Equations (1) and (2) respectively, based on UV-Vis spectral data:(1) LOD=3.3×σ/s (2) LOQ=10×σ/s where the σ value in the equations stands for the standard deviation of the absorption base line at 700 nm (where no sample-specific absorption was observed). The s value is the slope of the calibration curve recorded for each sample based on their absorption at λmax (Table 4.)"}, "[2]": {"assay": "BBB-specific permeability assay (BBB-PAMPA)", "type": "in vitro ADME", "conditions": "PBS pH 7.4, 37 °C, read-out: BBB-PAMPA Pe", "experimental": "In vitro, blood-brain barrier-specific (BBB) permeability studies were carried out using the PAMPA technique. First, solutions with the nominal concentration of 250 μM were prepared as described in Section 3.1. The solutions were shaken for 1 h at room temperature, at 300 rpm. For preparing the artificial BBB-specific membrane 16 mg BPLE and 8 mg cholesterol were dissolved in 600 μL dodecane. Each well of the donor plate (MultiscreenTM-IP, MAIPNTR10, pore size […], Merck kGaA) was coated with 5 μL lipid solution, and fitted into the acceptor plate containing 300 μL PBS (pH 7.4) with 2.5% DMSO, and 150–150 μL of the PBS solutions (made from the DMSO stock solutions) were put on the donor plate’s artificial membrane. The sandwich plate system was covered with a tissue of wet paper and a plastic lid to avoid evaporation of the solvent, and it was incubated at 37 °C for 4 h. In the end, the donor solutions were filtrated (Vacuum Manifold, Merck kGaA), and the initial 250 μM solutions (cD(0)), the donor (cD(t)) and acceptor solution (cA(t)) were analyzed by a Multiskan Sky UV-plate-reader (Thermo Scientific) in the wavelength range of 250–700 nm, with 1 nm steps.\nBBB permeability was calculated using the effective permeability equation used for iso-pH conditions described by A. Avdeef:(3) Pe=−2.303/A·(t−τss)·(1/1+rv)·lg[−rv+(1+rv/1−MR)·cD(t)/cD(0)] […]"}}}
{"smiles": "COc1ccc2[nH]cc(CCNC(C)=O)c2c1", "note": "[Melatonin, melatonin, reference compound]", "values": [{"measurement": "solubility kinetic at 2 h", "setting": "[1]", "result": "123 ± 9.4", "unit": "µM"}, {"measurement": "Papp at 4 h, 250 μM", "setting": "[2]", "result": "2.97 ± 1.18", "unit": "×10⁻⁶ cm/s"}]}
